What was measured:
ALK = biological target: T1, ALK (Homo sapiens, UniProt Q9HC35+Q9UM73); test: Western blot of ALK phosphorylation state; type: cell-based; conditions: NCI-H2228 lysates, IC50 concentrations, 24 h
T1 construct: Western blot detection of the ALK phosphorylation state in lysates of NCI-H2228 cells exposed to the tested compounds; endogenous in cells; host or cells: NCI-H2228
Description: Whereas the signals of pALK and pMET are decreased in the presence of the tested compounds, the overall amount of ALK and MET is not markedly changed.
NCI-H2228 cells were seeded in 6-well plates at a density of 2 × 10^5 cells/well and incubated overnight. […] The cells were then harvested and lysed using RIPA lysis buffer supplemented with protease and phosphatase inhibitors as recommended by the manufacturer. Protein extracts were resolved with SDS-PAGE, transferred to a PVDF membrane, and the respective proteins were detected with specific antibodies (anti-phosphoALK, anti-ALK, anti-phosphoMET, anti-MET, and anti-GADPH) and HRP-conjugated secondary antibodies. The signals were obtained with SignalFire ECL Reagent and recorded with an Amersham680 reader.

CT26 and NCI-H2228 cells = test: Extracellular HMGB1 (ELISA); type: cell-based; conditions: IC50 concentrations, 24 h
Description: The amount of HMGB1 in the medium was determined using an enzyme-linked immunosorbent assay (ELISA).
CT26 and NCI-H2228 cells were seeded in 48-well plates at a density of 5 × 10^4 cells/well and grown overnight. […] Aliquots of the supernatants were then withdrawn and processed using the HMGB1 Express ELISA kit (TECAN) according to the manufacturer’s instructions. The final absorbance, proportional to the HMGB1 amount, was read at 420 nm using a multimode SPARK reader (TECAN).

T1 sequence (Q9HC35+Q9UM73 fused): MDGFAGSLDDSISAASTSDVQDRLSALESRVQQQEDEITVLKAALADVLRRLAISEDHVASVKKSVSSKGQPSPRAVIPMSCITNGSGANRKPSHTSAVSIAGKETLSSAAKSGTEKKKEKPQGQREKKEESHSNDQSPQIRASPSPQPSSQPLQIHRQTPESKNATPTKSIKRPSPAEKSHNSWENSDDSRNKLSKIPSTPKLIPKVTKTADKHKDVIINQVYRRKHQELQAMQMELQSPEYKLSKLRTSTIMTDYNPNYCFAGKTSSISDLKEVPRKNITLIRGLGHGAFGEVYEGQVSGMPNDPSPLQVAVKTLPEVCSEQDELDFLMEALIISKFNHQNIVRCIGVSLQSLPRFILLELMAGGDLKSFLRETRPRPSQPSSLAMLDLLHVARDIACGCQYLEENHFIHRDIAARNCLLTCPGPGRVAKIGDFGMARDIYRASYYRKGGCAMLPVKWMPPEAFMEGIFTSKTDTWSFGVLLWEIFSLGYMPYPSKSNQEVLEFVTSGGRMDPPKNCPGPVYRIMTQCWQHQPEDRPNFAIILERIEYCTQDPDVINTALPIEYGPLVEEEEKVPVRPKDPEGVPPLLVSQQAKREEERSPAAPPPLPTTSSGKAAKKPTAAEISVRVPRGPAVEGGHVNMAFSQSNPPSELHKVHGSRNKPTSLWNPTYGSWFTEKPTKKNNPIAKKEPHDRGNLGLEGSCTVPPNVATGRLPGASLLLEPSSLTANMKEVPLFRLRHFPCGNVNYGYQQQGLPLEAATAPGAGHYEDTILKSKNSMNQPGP

| SMILES | phosphorylation of ALK (ALK) | HMGB1 externalization relative to nontreated control (CT26 and NCI-H2228 cells) [fold] |
| --- | --- | --- |
| N.N.[Cl][Pt][Cl] [cisPt, cisplatin, reference compound] | no visible effect | 2 |
| Cc1cc(Nc2ncc(Cl)c(Nc3ccccc3S(=O)(=O)C(C)C)n2)c(OC(C)C)cc1C1CCN(C(=O)[O][Pt]([Cl])([Cl])[O]C(=O)CCCc2ccccc2)CC1.N.N [compound 7, ctc-[Pt(NH3)2(ceritinib)(PhB)Cl2]] | inhibit the phosphorylation | – |

— publication PMC12670396, “Crizotinib- or Ceritinib-Conjugated Platinum(IV) Prodrugs As Potent Multiaction Agents Inducing Antiproliferative Effects in 2D and 3D Cancer Cell Models” (Journal of Medicinal Chemistry, 2025)
